Converted amounts (≈) assume the structure as drawn.
What was measured:
[1] = Solubility of finasteride in Unistab S-69 (dosing by HPLC); assay type: physicochemical; settings: Unistab S-69 (commercial mixture of farnesol and linalool), oil or lipid
Experimental: The second embodiment of the invention is to increase the encapsulation of finasteride by the addition of a new oil in the formulation's lipid core composition in which the solubility is greater than in caprylic and capric triglycerides. To this end, Unistab® S-69, a commercial mixture, was preferentially employed and consists of farnesol and linalool, in which the solubility of finasteride is about 90 mg/mL (dosing done by HPLC). Farnesol is a sesquiterpene alcohol and linalool is a terpenic alcohol, both found in various essential oils and insoluble in water but miscible with oils and other organic solvents such as acetone and ethanol. For being volatile, Unistab® S-69 was mixed with triglycerides in a ratio of 2.3: 1 (v/v) (Unistab® S-69: triglycerides). However, this proportion, considering the saturation of finasteride in Unistab® S-69, could be employed in the preparation of a formulation with a drug concentration of 2.0 mg/ml, due to the volatility of Unistab® S-69 and to the consequent loss of oil due to the draw caused by steam during the process of solvent evaporation under reduced pressure, a formulation was prepared with a finasteride concentration of 0.5 mg/ml, in order to ensure the nanometric features of the system. This formulation comprising a new lipid core represents the second embodiment of the invention.

men aged 18 to 41 years = settings: 1 mg daily, at the end of five years; cited from earlier work

solubility [1]: ~90 mg/mL (≈ 242 mM)
SMILES: CC(C)(C)NC(=O)[C@H]1CC[C@H]2[C@@H]3CC[C@H]4NC(=O)C=C[C@]4(C)[C@H]3CC[C@]12C [finasteride]
Patients who developed baldness (men aged 18 to 41 years): 10%
